From publication PMC7900168, “Nanocomposite-based dual enzyme system for broad-spectrum scavenging of reactive oxygen species” (Scientific Reports, 2021)

Test system: T1, horseradish peroxidase (HRP)
T1 construct: gene PRXC1A; native enzyme, free in solution
Test: guaiacol oxidation assay, spectrophotometric, Michaelis-Menten fit
Assay type: biochemical, Armoracia rusticana
Conditions: native free enzyme; co-substrate hydrogen peroxide
Source text: guaiacol oxidation assay, spectrophotometric, Michaelis-Menten fit on horseradish peroxidase (HRP)

- Km: 1560 ± 80 µM
Structure (SMILES): COc1ccccc1O [guaiacol]
